Results as given in the NIST ThermoML archive (doi:10.1016/j.tca.2016.02.008).
Numbers after ± are expanded uncertainties.

Key:
[1] = for Normal melting temperature: DTA
[2] = Molar enthalpy of transition or fusion; conditions: DSC

Normal melting temperature ([1]; Crystal 1) [°C] | Triple point temperature ([1]; Crystal 2, DSC) [K] | Molar enthalpy of transition or fusion ([2]; Crystal 1) [kcal/mol] | Molar enthalpy of transition or fusion ([2]; Crystal 2) [kcal/mol] | Normal melting temperature ([1]; Crystal) [°C] | Molar enthalpy of transition or fusion ([2]; Crystal) [kcal/mol] | SMILES
13.70 ± 0.4 | 268.95 ± 0.8 | 8.99 ± 0.454 | 1.87 ± 0.1 | – | – | CCCCCCCC/C=C\CCCCCCCC(=O)O [(Z)-9-octadecenoic acid]
– | – | – | – | -5.40 ± 0.4 | 7.46 ± 0.382 | CCCCC/C=C\C/C=C\CCCCCCCC(=O)O [(Z,Z)-9,12-octadecadienoic acid]
– | – | – | – | -10.90 ± 0.4 | 6.99 ± 0.359 | CC/C=C\C/C=C\C/C=C\CCCCCCCC(=O)O [all-cis-9,12,15-octadecatrienoic acid]
– | – | – | – | 63.10 ± 0.4 | 12.9 ± 0.645 | CCCCCCCCCCCCCCCC(=O)O [hexadecanoic acid]
– | – | – | – | 70.60 ± 0.4 | 15.1 ± 0.741 | CCCCCCCCCCCCCCCCCC(=O)O [octadecanoic acid]
